Source: patent US8765748B2, “Indazolyl, benzimidazolyl, benzotriazolyl substituted indolinone derivatives as kinase inhibitors useful in the treatment of cancer” (University Health Network, priority 2007, dated 2014)

What was measured:
Format in all cases: biochemical
[1] = biological target: T1, PLK2 (Homo sapiens, UniProt Q9NYY3); test: PLK2 Inhibition Assay (Z-Lyte); conditions: 10 μM compound; read-out: PLK2 relative inhibition percentage at a dose of 10 μM
T1 construct: purchased Invitrogen PV4204
T1 sequence (Q9NYY3 whole entry): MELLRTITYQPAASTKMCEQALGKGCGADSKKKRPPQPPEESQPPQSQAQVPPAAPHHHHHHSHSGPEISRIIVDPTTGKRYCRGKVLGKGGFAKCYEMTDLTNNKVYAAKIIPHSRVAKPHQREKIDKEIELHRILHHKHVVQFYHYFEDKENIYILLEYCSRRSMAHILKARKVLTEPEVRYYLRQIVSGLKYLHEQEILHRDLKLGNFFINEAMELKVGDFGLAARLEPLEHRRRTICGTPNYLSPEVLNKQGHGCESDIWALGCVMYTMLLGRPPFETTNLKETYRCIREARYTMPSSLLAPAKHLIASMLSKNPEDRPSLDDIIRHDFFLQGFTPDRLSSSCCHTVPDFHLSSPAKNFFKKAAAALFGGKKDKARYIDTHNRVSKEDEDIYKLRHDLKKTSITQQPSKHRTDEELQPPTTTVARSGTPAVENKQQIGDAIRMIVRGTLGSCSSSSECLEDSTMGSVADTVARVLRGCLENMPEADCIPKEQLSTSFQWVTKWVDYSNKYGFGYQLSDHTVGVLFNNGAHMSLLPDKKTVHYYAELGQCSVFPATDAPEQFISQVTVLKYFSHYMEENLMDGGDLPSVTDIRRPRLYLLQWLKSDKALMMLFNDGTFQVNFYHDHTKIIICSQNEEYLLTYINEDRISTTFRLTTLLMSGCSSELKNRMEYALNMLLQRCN
Description: (§1) PLK2 inhibition was determined using the Z-Lyte assay kit from Invitrogen (cat #PV3802). The assay was performed using the recommended manufacturer's instructions with 60 μM ATP and 133 nM PLK2 (Invitrogen cat #PV4204). The % inhibition values were determined according to the manufacturer's directions and IC50 values were obtained using a non-linear 4 point logistic curve fit (XLfit4, IDBS)

[2] = biological target: T2, Aurora B (Homo sapiens, UniProt Q96GD4); test: Aurora B Inhibition Assay (Z-Lyte); conditions: 128 μM ATP, 28 nM Aurora B; read-out: Aurora B IC50 Ranges
T2 construct: purchased Invitrogen PV3970
T2 sequence (Q96GD4 whole entry): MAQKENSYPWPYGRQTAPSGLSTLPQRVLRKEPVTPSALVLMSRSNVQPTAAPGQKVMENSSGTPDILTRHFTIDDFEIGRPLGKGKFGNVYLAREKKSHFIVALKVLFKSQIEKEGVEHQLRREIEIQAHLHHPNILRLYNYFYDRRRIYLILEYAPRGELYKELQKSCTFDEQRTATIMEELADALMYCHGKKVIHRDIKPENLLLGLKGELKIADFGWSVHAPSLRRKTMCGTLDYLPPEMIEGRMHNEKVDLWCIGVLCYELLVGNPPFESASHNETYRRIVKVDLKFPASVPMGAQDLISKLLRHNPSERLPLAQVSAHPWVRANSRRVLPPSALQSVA
Description: as §1, with “Aurora B” for “PLK2”, “Invitrogen.” for “Invitrogen (cat #PV3802).”, “128” for “60”, “28” for “133”, “#PV3970).” for “#PV4204).”

[3] = biological target: T3, PLK1 (Homo sapiens, UniProt P53350); test: PLK1 Inhibition Assay (Z-Lyte); conditions: for inhibition at 10 µM: 10 μM compound, read-out: PLK1 relative inhibition percentage at a dose of 10 μM
T3 construct: purchased Invitrogen PV3501
T3 sequence (P53350 whole entry): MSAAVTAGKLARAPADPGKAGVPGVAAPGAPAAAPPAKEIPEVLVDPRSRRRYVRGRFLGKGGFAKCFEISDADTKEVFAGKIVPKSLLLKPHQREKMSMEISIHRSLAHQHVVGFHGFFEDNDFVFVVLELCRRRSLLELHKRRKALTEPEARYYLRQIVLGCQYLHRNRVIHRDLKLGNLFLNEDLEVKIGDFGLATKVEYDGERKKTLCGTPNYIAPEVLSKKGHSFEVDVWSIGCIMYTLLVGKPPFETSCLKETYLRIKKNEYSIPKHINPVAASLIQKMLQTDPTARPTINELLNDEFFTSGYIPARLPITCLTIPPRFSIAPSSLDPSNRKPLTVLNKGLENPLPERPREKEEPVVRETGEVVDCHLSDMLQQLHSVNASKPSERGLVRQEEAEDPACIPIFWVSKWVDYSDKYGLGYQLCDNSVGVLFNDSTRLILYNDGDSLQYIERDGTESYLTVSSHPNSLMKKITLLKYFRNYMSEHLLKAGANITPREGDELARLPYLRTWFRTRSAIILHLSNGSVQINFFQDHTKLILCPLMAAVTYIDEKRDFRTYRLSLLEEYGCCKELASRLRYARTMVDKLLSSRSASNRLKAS
Description: PLK1 inhibition was determined using the Z-Lyte assay kit from Invitrogen (cat #PV3802). […] The % inhibition values were determined according to the manufacturer's directions and IC50 values were obtained using a non-linear 4 point logistic curve fit (XLfit4, IDBS)

[4] = biological target: T4, Aurora A (Homo sapiens, UniProt O14965); test: Aurora A Inhibition Assay (Z-Lyte); conditions: for IC50: 20 μM ATP, 12 nM Aurora A, read-out: Aurora A IC50 Ranges; for inhibition at 10 µM: 10 μM compound, read-out: Aurora A relative inhibition percentage at a dose of 10 μM; for inhibition at 1 µM: 1 μM compound, read-out: Aurora A relative inhibition percentage at a dose of 1 μM
T4 construct: purchased Invitrogen PV3612
T4 sequence (O14965 1-403): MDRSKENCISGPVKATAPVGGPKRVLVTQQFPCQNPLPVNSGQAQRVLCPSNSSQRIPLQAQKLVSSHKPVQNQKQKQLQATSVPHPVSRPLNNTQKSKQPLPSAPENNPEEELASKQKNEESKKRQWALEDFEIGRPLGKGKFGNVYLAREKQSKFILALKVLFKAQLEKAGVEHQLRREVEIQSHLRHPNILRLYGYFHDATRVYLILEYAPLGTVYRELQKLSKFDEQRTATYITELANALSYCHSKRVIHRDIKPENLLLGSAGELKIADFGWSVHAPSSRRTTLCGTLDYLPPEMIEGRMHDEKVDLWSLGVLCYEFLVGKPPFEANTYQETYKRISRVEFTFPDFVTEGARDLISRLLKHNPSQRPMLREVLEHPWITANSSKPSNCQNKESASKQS
Description: as §1, with “Aurora A” for “PLK2”, “Invitrogen.” for “Invitrogen (cat #PV3802).”, “20” for “60”, “12” for “133”, “#PV3612).” for “#PV4204).”

[5] = biological target: T5, human PLK4 (Homo sapiens, UniProt O00444); test: PLK4 Inhibition Assay (indirect ELISA); conditions: 15 μM ATP, 4 nM GST-PLK4; read-out: PLK4 IC50 Ranges
T5 construct: amino terminal GST fusion of residues 1-391 of human PLK4; made in house; host or cells: E. coli
T5 sequence (O00444 1-391): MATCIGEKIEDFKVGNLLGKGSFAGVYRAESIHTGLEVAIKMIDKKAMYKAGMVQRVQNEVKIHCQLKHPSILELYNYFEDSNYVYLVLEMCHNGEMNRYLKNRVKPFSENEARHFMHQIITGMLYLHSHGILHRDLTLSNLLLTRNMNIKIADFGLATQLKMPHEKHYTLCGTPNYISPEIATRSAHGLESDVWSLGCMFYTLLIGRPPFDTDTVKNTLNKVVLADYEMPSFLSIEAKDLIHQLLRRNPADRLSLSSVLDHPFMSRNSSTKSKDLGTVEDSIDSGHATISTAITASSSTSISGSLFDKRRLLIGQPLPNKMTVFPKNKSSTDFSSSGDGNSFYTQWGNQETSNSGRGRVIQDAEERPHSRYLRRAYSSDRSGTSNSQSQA
Description: The protein was purified from clarified cell extracts after induction at 15° C. overnight using glutathione sepharose, gel permeation chromatography, and ion exchange (Resource Q). The resulting protein was dephosphorylated with lambda phosphatase (NEB cat #P0753), and resolved from the phosphatase using gluthione sepharose. The dephosphorylated GST-PLK4 was stored in aliquots at −80° C. until use. PLK4 activity was measured using an indirect ELISA detection system. […] Compounds were pre-incubated in the presence of enzyme for 15 minutes prior to addition of ATP and the activity remaining quantified using the above described activity assay. […] The IC50 value was determined using a non-linear 4 point logistic curve fit (XLfit4, IDBS) with the formula; (A+(B/(1+((x/C)^D)))), where A=background value, B=range, C=inflection point, D=curve fit parameter.

SMILES	inhibition at 10 µM [1] [%]	IC50 [2] [µM]	inhibition at 10 µM [3] [%]	IC50 [4] [µM]	IC50 [5] [µM]	IC50 ([3]; 25 μM ATP, 8 nM PLK1, read-out: PLK1 IC50 Ranges) [µM]	inhibition at 10 µM [4] [%]	inhibition at 1 µM [4] [%]
COc1ccc2c(c1)/C(=C\c1ccc3c(-c4ccc(N(C)C)nc4)n[nH]c3c1)C(=O)N2 [Example A116, (E)-3-((3-(6-(dimethylamino)pyridin-3-yl)-1H-indazol-6-yl)methyl-ene)-5-methoxyindolin-2-one]	< 50	–	< 50	–	–	–	–	–
O=C1Nc2ccc(O)cc2/C1=C\c1ccc2cn[nH]c2c1 [Example A123, (E)-3-((1H-indazol-6-yl)methylene)-5-hydroxyindolin-2-one]	–	< 5	–	< 5	< 5	–	–	–
O=C1Nc2ncccc2C1=Cc1ccc2c(/C=C/c3ccc(C(=O)O)cc3)n[nH]c2c1 (mixture of isomers) [Example A146, 4-((E)-2-(6-((E/Z)-(2-oxo-1H-pyrrolo[2,3-b]pyridin-3(2H)-ylidene)methyl)-1H-indazol-3-yl)vinyl)benzoic acid]	–	< 5	–	< 5	< 5	–	–	–
COC(=O)c1ccc(/C=C/c2n[nH]c3cc(/C=C4\C(=O)Nc5ccccc54)ccc23)cc1 [Example A141, methyl 4-((E)-2-(6-((Z)-(2-oxoindolin-3-ylidene)methyl)-1H-indazol-3-yl)vinyl)benzoate]	–	< 5	–	–	< 5	–	–	> 50
O=C1Nc2ccc(Cl)nc2C1=Cc1ccc2c(/C=C/c3ccncc3)n[nH]c2c1 (mixture of isomers) [Example A137, (E and Z)-5-chloro-3-((3-((E)-2-(pyridin-4-yl)vinyl)-1H-indazol-6-yl)methylene)-1H-pyrrolo[3,2-b]pyridin-2(3H)-one]	–	< 5	–	< 5	< 5	–	–	–
N#Cc1ccc2c(c1)C(=Cc1ccc3c(/C=C/c4ccncc4)n[nH]c3c1)C(=O)N2 (mixture of isomers) [Example A128, (E and Z)-2-oxo-3-((3-((E)-2-(pyridin-4-yl)vinyl)-1H-indazol-6-yl)methylene)indoline-5-carbonitrile]	–	< 5	–	< 5	< 5	–	–	–
O=C1Nc2ccccc2/C1=C\c1ccc2c(/C=C/c3ccc(C(=O)O)cc3)n[nH]c2c1 [Example A144, 4-((E)-2-(6-((E)-(2-oxoindolin-3-ylidene)methyl)-1H-indazol-3-yl)vinyl)benzoic acid]	–	< 5	–	< 5	< 5	–	–	–
O=C1Nc2ncc(Br)cc2C1=Cc1ccc2c(/C=C/c3cccnc3)n[nH]c2c1 (mixture of isomers) [Example A140, (E and Z)-5-bromo-3-((3-((E)-2-(pyridin-3-yl)vinyl)-1H-indazol-6-yl)methylene)-1H-pyrrolo[2,3-b]pyridin-2(3H)-one]	–	< 5	–	< 5	< 5	–	–	–
O=C1Nc2ccc(O)cc2/C1=C\c1ccc2c(/C=C/c3ccncc3)n[nH]c2c1 [Example A124, (E)-5-hydroxy-3-((3-((E)-2-(pyridin-4-yl)vinyl)-1H-indazol-6-yl)methylene)indolin-2-one 2,2,2-trifluoroacetate]	–	< 5	–	< 5	< 5	–	–	–
COc1cc2c(cc1OC)/C(=C\c1ccc3c(/C=C/c4ccncc4)n[nH]c3c1)C(=O)N2 [Example A138, (E)-5,6-dimethoxy-3-((3-((E)-2-(pyridin-4-yl)vinyl)-1H-indazol-6-yl)methylene)indolin-2-one]	–	< 5	–	< 5	< 5	–	–	–

Next, values leading:

inhibition at 10 µM [1] [%]	IC50 [2] [µM]	inhibition at 10 µM [3] [%]	IC50 [4] [µM]	IC50 [5] [µM]	IC50 ([3]; 25 μM ATP, 8 nM PLK1, read-out: PLK1 IC50 Ranges) [µM]	inhibition at 10 µM [4] [%]	inhibition at 1 µM [4] [%]	SMILES
< 50	< 5	> 50	< 5	< 5	–	–	–	CN1CCN(C(=O)c2cccc(/C=C/c3n[nH]c4cc(C=C5C(=O)Nc6ccccc65)ccc34)c2)CC1 (mixture of isomers) [Example A107, (E and Z)-3-((3-((E)-3-(4-methylpiperazine-1-carbonyl)styryl)-1H-indazol-6-yl)methylene)indolin-2-one 2,2,2-trifluoroacetate]
> 50	5 to 50	–	–	< 5	5 to 50	> 50	–	CC(=O)Nc1ccc2c(c1)/C(=C\c1ccc3cn[nH]c3c1)C(=O)N2 [Example A22, (E)-N-(3-((1H-indazol-6-yl)methylene)-2-oxoindolin-5-yl)acetamide]
> 50	< 5	< 50	–	< 5	–	–	–	O=C1Nc2ccccc2/C1=C\c1cc(Br)c2cn[nH]c2c1 [Example A53a, (E)-3-((4-bromo-1H-indazol-6-yl)methylene)indolin-2-one]
< 50	< 5	< 50	< 5	< 5	–	–	–	O=C1Nc2ccccc2/C1=C\c1ccc2c(/C=C/c3ccccc3)n[nH]c2c1 [Example A58, (E)-3-((E)-(3-styryl-1H-indazol-6-yl)methylene)indolin-2-one]
< 50	–	< 50	–	< 5	–	–	–	COCn1nc(/C=C/c2ccncc2)c2ccc(/C=C3/C(=O)Nc4ccc(Br)cc43)cc21 [Example A63, (E)-5-bromo-3-((1-(methoxymethyl)-3-((E)-2-(pyridin-4-yl)vinyl)-1H-indazol-6-yl)methylene)indolin-2-one]
–	< 5	–	–	< 5	–	–	> 50	COC(=O)c1ccc(/C=C/c2n[nH]c3cc(C=C4C(=O)Nc5ccc(OC)cc54)ccc23)cc1 (mixture of isomers) [Example A142, methyl 4-((E)-2-(6-((E and Z)-(5-methoxy-2-oxoindolin-3-ylidene)methyl)-1H-indazol-3-yl)vinyl)benzoate]
–	< 5	–	–	< 5	–	–	> 50	COC(=O)c1ccc(/C=C/c2n[nH]c3cc(C=C4C(=O)Nc5ncccc54)ccc23)cc1 (mixture of isomers) [Example A143, methyl 4-((E)-2-(6-((E and Z)-(2-oxo-1H-pyrrolo[2,3-b]pyridin-3(2H)-ylidene)methyl)-1H-indazol-3-yl)vinyl)benzoate]
–	< 5	–	5 to 50	< 5	–	–	–	COc1ccc2c(c1)/C(=C\c1ccc3c(-c4cnc(N5CCN(C)CC5)nc4)n[nH]c3c1)C(=O)N2 [Example A151, (E)-5-methoxy-3-((3-(2-(4-methylpiperazin-1-yl)pyrimidin-5-yl)-1H-indazol-6-yl)methylene)indolin-2-one]
–	< 5	–	–	< 5	–	> 50	–	O=C(O)/C=C/c1n[nH]c2cc(C=C3C(=O)Nc4ncccc43)ccc12 (mixture of isomers) [Example A71, (E)-3-(6-((E & Z)-(2-oxo-1H-pyrrolo[2,3-b]pyridin-3(2H)-ylidene)-methyl)-1H-indazol-3-yl)acrylic acid]
